Article PMC7617969, “Carboxylic Acid Bioisosteres Boost Nurr1 Agonist Selectivity” (Journal of medicinal chemistry, 2025)
“And” between values parts separate entries of the source, which are not always exact repeats. Identical values can stand only once.

Experiments:
Nurr1 = biological target: T1, Nurr1 (Homo sapiens, UniProt P43354); test: Gal4-Nurr1 hybrid reporter gene assay; type: cell-based
T1 construct: expressed in transfected cells; host or cells: HEK293T

NOR1 = biological target: T2, NOR1 (Homo sapiens, UniProt Q92570); test: Gal4-NOR1 hybrid reporter gene assay; type: cell-based
T2 construct: expressed in transfected cells; host or cells: HEK293T
T2 sequence (Q92570 394-623 limits assumed): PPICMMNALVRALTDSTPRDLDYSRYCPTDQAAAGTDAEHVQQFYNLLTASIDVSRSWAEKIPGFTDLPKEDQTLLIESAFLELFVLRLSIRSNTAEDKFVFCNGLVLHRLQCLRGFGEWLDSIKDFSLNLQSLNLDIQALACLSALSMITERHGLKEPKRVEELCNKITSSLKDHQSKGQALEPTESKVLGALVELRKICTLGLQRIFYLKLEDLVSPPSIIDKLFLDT
Protocol: NR modulation was determined in Gal4 hybrid reporter gene assays in HEK293T cells (German Collection of Microorganisms and Cell Culture GmbH, DSMZ) using pFR-Luc (Stratagene, La Jolla, CA, USA; reporter), pRL-SV40 (Promega, Madison, WI, USA; internal control) and pFA-CMV-hNR-LBD[47],[48] plasmids coding for the hinge region and ligand binding domain of the canonical isoform of the respective NR. Cells were cultured in Dulbecco’s modified Eagle’s medium (DMEM), high glucose supplemented with 10% fetal calf serum (FCS), sodium pyruvate (1 mM), penicillin (100 U/mL), and streptomycin (100 μg/mL) at 37°C and 5% CO2 and seeded in 96-well plates (3×10^4 cells/well). […] Five hours after transfection, cells were incubated with the test compounds in Opti-MEM supplemented with penicillin (100 U/mL), streptomycin (100 μg/mL) and 0.1% DMSO for 16 h before luciferase activity was measured using the Dual-Glo Luciferase Assay System (Promega) according to the manufacturer’s protocol on a Tecan Spark luminometer (Tecan Deutschland GmbH, Crailsheim, Germany). Firefly luminescence was divided by Renilla luminescence and multiplied by 1000 resulting in relative light units (RLU) to normalize for transfection efficiency and cell growth. […]

FXR = biological target: T3, FXR (Homo sapiens, UniProt Q96RI1); test: Gal4 hybrid reporter gene assay, selectivity panel; type: cell-based; conditions: 1 µM; relative activation compared to reference agonists
T3 construct: expressed in transfected cells; host or cells: HEK293T
T3 sequence (Q96RI1 262-486 limits assumed): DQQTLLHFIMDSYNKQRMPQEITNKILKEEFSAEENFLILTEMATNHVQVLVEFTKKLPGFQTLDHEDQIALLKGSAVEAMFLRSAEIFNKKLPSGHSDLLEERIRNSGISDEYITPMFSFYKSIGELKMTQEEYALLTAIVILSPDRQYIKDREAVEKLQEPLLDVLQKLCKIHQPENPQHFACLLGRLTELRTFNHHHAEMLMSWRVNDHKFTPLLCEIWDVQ
Protocol: (§1) NR modulation was determined in Gal4 hybrid reporter gene assays in HEK293T cells (German Collection of Microorganisms and Cell Culture GmbH, DSMZ) using pFR-Luc (Stratagene, La Jolla, CA, USA; reporter), pRL-SV40 (Promega, Madison, WI, USA; internal control) and pFA-CMV-hNR-LBD[47],[48] plasmids coding for the hinge region and ligand binding domain of the canonical isoform of the respective NR. Cells were cultured in Dulbecco’s modified Eagle’s medium (DMEM), high glucose supplemented with 10% fetal calf serum (FCS), sodium pyruvate (1 mM), penicillin (100 U/mL), and streptomycin (100 μg/mL) at 37°C and 5% CO2 and seeded in 96-well plates (3×10^4 cells/well). After 24 h, medium was changed to Opti-MEM without supplements and cells were transiently transfected using Lipofectamine LTX reagent (Invitrogen, Carlsbad, CA, USA) according to the manufacturer’s protocol. Five hours after transfection, cells were incubated with the test compounds in Opti-MEM supplemented with penicillin (100 U/mL), streptomycin (100 μg/mL) and 0.1% DMSO for 16 h before luciferase activity was measured using the Dual-Glo Luciferase Assay System (Promega) according to the manufacturer’s protocol on a Tecan Spark luminometer (Tecan Deutschland GmbH, Crailsheim, Germany). Firefly luminescence was divided by Renilla luminescence and multiplied by 1000 resulting in relative light units (RLU) to normalize for transfection efficiency and cell growth. Fold activation was obtained by dividing the mean RLU of test compound by the mean RLU of the untreated control. All samples were tested in at least three biologically independent experiments in duplicates. For dose-response curve fitting and calculation of EC50 values, the equation “[Agonist] vs. response -- Variable slope (four parameters)” was used in GraphPad Prism (version 7.00, GraphPad Software, La Jolla, CA, USA).

VDR = biological target: T4, VDR (Homo sapiens, UniProt P11473); test: Gal4 hybrid reporter gene assay, selectivity panel; type: cell-based; conditions: 1 µM; relative activation compared to reference agonists
T4 construct: expressed in transfected cells; host or cells: HEK293T
T4 sequence (P11473 127-423 limits assumed): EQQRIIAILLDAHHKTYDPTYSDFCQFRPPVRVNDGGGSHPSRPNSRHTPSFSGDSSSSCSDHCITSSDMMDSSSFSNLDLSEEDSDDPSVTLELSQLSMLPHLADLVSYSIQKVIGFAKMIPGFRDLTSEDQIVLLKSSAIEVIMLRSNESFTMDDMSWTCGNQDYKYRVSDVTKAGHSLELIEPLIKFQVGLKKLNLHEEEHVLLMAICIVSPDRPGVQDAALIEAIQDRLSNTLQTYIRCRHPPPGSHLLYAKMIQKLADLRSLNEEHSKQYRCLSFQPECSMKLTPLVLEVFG
Protocol: as §1

PXR = biological target: T5, PXR (Homo sapiens, UniProt O75469); test: Gal4 hybrid reporter gene assay, selectivity panel; type: cell-based; conditions: 1 µM; relative activation compared to reference agonists
T5 construct: expressed in transfected cells; host or cells: HEK293T
T5 sequence (O75469 146-433): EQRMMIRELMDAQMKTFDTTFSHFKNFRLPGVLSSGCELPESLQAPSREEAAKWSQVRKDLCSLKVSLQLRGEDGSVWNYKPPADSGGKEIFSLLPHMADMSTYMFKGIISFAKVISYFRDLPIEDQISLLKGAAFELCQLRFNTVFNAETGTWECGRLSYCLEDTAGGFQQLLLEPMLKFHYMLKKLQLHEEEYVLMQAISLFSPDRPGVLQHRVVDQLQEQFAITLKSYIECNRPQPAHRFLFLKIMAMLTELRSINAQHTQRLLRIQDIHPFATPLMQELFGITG
Protocol: as §1

rDHODH = biological target: T6, rDHODH (Rattus norvegicus, UniProt Q63707); test: rat DHODH inhibition assay; type: biochemical, rats
T6 construct: using an N-terminally truncated recombinant DHODH enzyme as described previously[20]
T6 sequence (Q63707 31-395): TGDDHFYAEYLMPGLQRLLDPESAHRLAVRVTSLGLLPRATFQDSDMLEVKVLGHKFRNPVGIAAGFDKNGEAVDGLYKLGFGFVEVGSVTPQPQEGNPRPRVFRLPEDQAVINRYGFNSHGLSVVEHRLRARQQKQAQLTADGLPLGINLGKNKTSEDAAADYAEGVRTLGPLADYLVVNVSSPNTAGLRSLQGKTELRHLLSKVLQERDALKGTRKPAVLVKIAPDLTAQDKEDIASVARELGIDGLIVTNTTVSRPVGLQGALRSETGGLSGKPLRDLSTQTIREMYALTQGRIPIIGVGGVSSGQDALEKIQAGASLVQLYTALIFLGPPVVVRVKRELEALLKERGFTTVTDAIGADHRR
Protocol: Inhibition of DHODH was measured in vitro using an N-terminally truncated recombinant DHODH enzyme as described previously. The final assay mixture contained 60 μM 2,6-dichloroindophenol, 50 μM decylubiquinone, 100 μM dihydroorotate, and the DHODH protein whose concentration was adjusted in a way that an average slope of approx. 0.2 AU/min served as the positive control (no inhibitor). Measurements were performed in 50 mM TrisHCl, 150 mM KCl, and 0.1% Triton X-100 at pH 8.0 and at 30°C with at least six different concentrations of a test compound. The reaction was started by adding dihydroorotate and measuring the absorption at 600 nm for 2 min. Each test compound concentration used for IC50 calculation was tested in at least three independent experiments.

T1 sequence (P43354 360-595 limits assumed): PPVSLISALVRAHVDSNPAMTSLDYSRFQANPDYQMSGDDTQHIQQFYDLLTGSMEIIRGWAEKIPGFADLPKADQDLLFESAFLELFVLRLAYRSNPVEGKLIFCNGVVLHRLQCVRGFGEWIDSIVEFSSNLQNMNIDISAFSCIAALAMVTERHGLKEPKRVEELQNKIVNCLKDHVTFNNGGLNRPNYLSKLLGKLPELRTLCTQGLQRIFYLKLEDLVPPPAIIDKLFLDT

In the case of COc1cccc(-c2ccc(NC(=O)C3=C(c4nn[nH]n4)CCC3)c(F)c2)c1 [compound 32, N-{3-Fluoro-3’-methoxy-[1,1'-biphenyl]-4-yl}-2-(2H-tetrazol-5-yl)cyclopent-1-ene-1-carboxamide], the “Nurr1 preference/selectivity over DHODH” value (Nurr1) is reported as over 100 fold, the EC50 (Nurr1; Gal4-Nurr1 hybrid reporter gene assay, HEK293T cells, mean ± S.E.M., n ≥ 3) is reported as 90 ± 10 nM and the “max. activation (Nurr1)” value (Nurr1; Gal4-Nurr1 hybrid reporter gene assay, fold activation vs untreated control) is reported as 2.5 fold and 2.5±0.1 fold. The “selectivity index DHODH/Nurr1” value (Nurr1; IC50(DHODH) / EC50(Nurr1)) was 110, the efficacy_NR4A2 (Nurr1; supplementary csv, max. activation in %) was 250% and the EC50 (NOR1) was 120 ± 10 nM. For the same molecule, the “fold activation (NOR1)” value (NOR1) was 1.8 fold, the “activity on FXR” value (FXR) was “no activity” and the “activity on VDR” value (VDR) was “no activity”. For the same molecule, the “activity on PXR” value (PXR) was “no activity” and the inhibition at 100 µM (rDHODH) was 64 ± 2%.
